Measured values published in US20220153783A1, “MITOCHONDRIA-TARGETING COMPOUND AND COMPOSITION COMPRISING SAME FOR TREATING OR PREVENTING AGING-RELATED DISEASES” (FUSION BIOTECHNOLOGY CO., LTD., priority 2019, published 2022).
SH = thiol (–SH) group at the N-terminus

Legend:
[1] = Self-assembly of SH-KLAKLAKRGD (TEM, size); format: physicochemical; conditions: dissolved in water (1 mM and 10 mM), stirred 24 hours
Experimental: SH-KLAKLAKRGD (1 mM and 10 mM) was dissolved in water and stirred for 24 hours. A drop of SH-KLAKLAKRGD aqueous solution was placed on a formvar/carbon coated copper grid and allowed to evaporate at ambient conditions. The sample was stained with 2 wt % uranyl acetate solution and evaporated for 1 minute, and the excess solution was removed with filter paper. The specimen was observed using a JEM-1400 TEM operating at 120 kV.

senescent cells [2] = assay: Cytotoxicity of SH-KLAKLAKRGD, MTT cell viability; format: cell-based; conditions: different concentrations, 24 hours
Experimental: (§1) Specifically, the cell viability of IMR90 and senescent cells against SH-KLAKLAKRGD was evaluated by identifying the reduction of MTT to insoluble formazan. Cells were seeded at a density of 5×10^3 cells per well in a 96-well plate and cultured overnight, followed by treatment with different concentrations of SH-KLAKLAKRGD in DMEM medium containing 10% FBS and cultured for 24 hours. Then, the cells were cultured with MTT, and then the crystallized formazan was quantified by measuring the absorbance thereof at 595 nm by using an ELISA plate reader. Results were expressed as percent viability=[(A550 (treated cells)−background value)/(A550 (untreated cells)−background value)]×100.

[3] = Macromolecular formation of SP-101 by ROS (TEM/SEM); format: physicochemical; conditions: 1 mM and 10 mM in water, stirred 24 hours
Experimental: Specifically, 1 mM SP-101 and 10 mM SP-101 were each dissolved in water and stirred for 24 hours. A drop of an aqueous solution of SP-101 was placed on a formvar/carbon-coated copper grid and evaporated under atmospheric conditions. The sample was stained with a 2 wt % uranyl acetate solution, evaporated for 1 minute, and then the excess solution was removed therefrom by using a filter paper.

senescent cells [4] = assay: Cytotoxicity of SP-101, MTT cell viability; format: cell-based; conditions: 5 μM to 30 μM SP-101, 24 hours
Experimental: as §1, with “against SP-101” for “against SH-KLAKLAKRGD”, “of 3-(4,5-dimethylthiazol-2-yl)-2,5-diphenyltetrazolium bromide (MTT)” for “of MTT”, “of SP-101” for “of SH-KLAKLAKRGD”

senescent cells [5] = assay: SA-b-galactosidase staining of senescent cells; format: cell-based; conditions: 30 μM SP-101 versus untreated control, optical microscope
Experimental: Specifically, SA-b-galactosidase staining was used. Cells that were not treated with anything were used as a control, and those treated with 30 μM of SP-101 were used as an experimental group. SA-gal staining was performed using a kit (Biovision, K320-250) according to the manufacturer's instructions. Senescent cells were identified as blue-stained cells under an optical microscope.

[6] = system: choroidal neovascularization; assay: Laser-induced CNV model, fluorescein angiography; format: in vivo, mice; conditions: two weeks after laser, compared to Eylea control group
Description: Specifically, the mice were anesthetized by intraperitoneal injection of ketamine hydrochloride and xylazine hydrochloride. By using a diode laser with a wavelength of 810 nm, eight photocoagulation spots, each having the size of 75 μm, the intensity of 250 mW, and the time of 50 ms, were made in concentric circles among the main retinal vessels around the optic nerve. The rupture of the Bruck's membrane was confirmed by identifying that cavitation bubbles had been formed in the choroid. Immediately after laser irradiation, the experimental groups treated with 10 μM, 50 μM, and 100 μM of SP-101, and phosphate buffered saline and Eylea, which were used as control groups, were injected into the vitreous cavity. Two weeks after laser irradiation, fluorescein angiography was performed thereon using a confocal scanning laser fundus camera. After fluorescein-dextran was rapidly injected intravenously, images thereof were taken at the beginning (2 min) and late (10 min).

SH-KLAKLAKRGD: mitochondria-targeting compound prepared by solid phase peptide synthesis; NH2-KLAKLAKRGD reacted with disulfide 4, structure in FIG. 10 ({SH}-KLAKLAKRGD-NH2; also: N-terminal thiol group from reaction with disulfide 4)
size of the polymerized SH-KLAKLAKRGD [1]: 350±100 nm | macromolecule formation (TEM image) ([1]; TEM): showed a macromolecule in which peptides were polymerized | cell viability in senescent cells versus IMR90 normal cell (senescent cells [2]): cell viability in senescent cells was lower than that in IMR90

(3-((3-(3,5-dimercaptobenzamido)propyl)dimethylammonium)propyl)triphenylphosphonium [SP-101]
macromolecule formation by oxidation [3]: oxidized to form a macromolecule | killing of senescent cells versus normal cells IMR90 (senescent cells [4]): more senescent cells were killed than normal cells | reduction of senescent cells (blue-stained cells) (senescent cells [5]): senescent cells were reduced | volume of choroidal neovascularization ([6]; 10 μM SP-101 injected into the vitreous cavity): decreased by about twice compared to the Eylea control group | volume of choroidal neovascularization ([6]; 100 μM SP-101 injected into the vitreous cavity): decreased by about twice compared to the Eylea control group
